Assay results taken from patent US12152038B2, “Vasopressin receptor antagonists and products and methods related thereto” (Neumora Therapeutics, Inc., priority 2017, dated 2024).

The compounds below were run against T1, human Arginine Vasopressin Receptor 1b (AVPR1b) (Homo sapiens, UniProt P47901) (assay: Vasopressin V1b receptor antagonist assay (FLIPR calcium, CHO-AVPR1b cells)).
T1 construct: expressed in transfected cells; host or cells: CHO (CHO-AVPR1b, kept under G418 selection)
T1 sequence (P47901 1-424): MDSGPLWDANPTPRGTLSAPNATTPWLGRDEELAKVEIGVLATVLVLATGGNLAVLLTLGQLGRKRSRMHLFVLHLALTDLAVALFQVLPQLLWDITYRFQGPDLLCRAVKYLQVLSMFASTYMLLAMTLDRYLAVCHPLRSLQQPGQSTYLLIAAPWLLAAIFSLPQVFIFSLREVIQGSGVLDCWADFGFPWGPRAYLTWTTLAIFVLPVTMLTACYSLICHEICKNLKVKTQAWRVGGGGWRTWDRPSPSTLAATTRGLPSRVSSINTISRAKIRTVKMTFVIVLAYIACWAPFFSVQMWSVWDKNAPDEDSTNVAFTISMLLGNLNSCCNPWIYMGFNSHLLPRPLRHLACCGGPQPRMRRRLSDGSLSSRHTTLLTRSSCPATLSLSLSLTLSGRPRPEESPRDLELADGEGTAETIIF
Type: cell-based
Experimental: The purpose of the assay was to determine the inhibitory effect of synthesized compounds on the Vasopressin V1b receptor. The assay was performed in Chinese Hamster Ovary (CHO) cells expressing the human Arginine Vasopressin Receptor 1b (AVPR1b). Arginine Vasopressin (AVP) evokes an increase in intracellular calcium in CHO-AVPR1b cells which is measured in a fluorescence assay on the FLIPR^TETRA using calcium sensitive dyes. Test compounds were assessed for their ability to affect the magnitude of the response to AVP, with antagonists showing a concentration-dependent reduction in the AVP-mediated fluorescence.
CHO-AVPR1b cells were maintained in routine culture in T175 Flasks at 37° C., 5% CO2. The growth medium consisted of Ham's F12 media supplemented with 10% v/v fetal bovine serum, 1× non-essential amino acids, and 0.4 mg/ml Geneticin G418.
Cells were harvested from T175 flasks when they were 80-90% confluent by first washing the cell monolayer with PBS and then dissociated using trypsin 0.05%/EDTA (3 mL for a T175 Flask). The flasks were incubated at room temperature until the cells detached. To the cell suspension, 10 ml of growth media was added and the cell density determined using the Vi-Cell automated cell counter. The cells were spun at 1000 rpm for 3 minutes, then the supernatant was carefully removed and discarded. The cell pellet was re-suspended at 6.0e^5 cells/ml in growth media. 25 μL of cells in growth media was dispensed into each well (15,000 cells per well) of a poly-D-lysine coated black, clear bottomed, 384-well plate. The plates were incubated at 37° C., 5% CO2 overnight.
At the start of each assay day, the potency of AVP was assessed and an EC80 concentration determined for subsequent compound profiling. Assays were performed using a two-step addition protocol on the FLIPR^TETRA; first addition of 5 μl of control or test compound at 10× final in assay buffer with 15 min incubation at 37° C., 5% CO2 followed by 10 μl of AVP at 6× final concentration in assay buffer. Changes in fluorescence were monitored for 3 min after both additions on the FLIPR^TETRA using 470-495 nm excitation and 515-575 nm emission wavelengths. The assay buffer consisted of HBSS (+Ca/+Mg) supplemented with 20 mM HEPES, and for the preparation of the AVP agonist only, 0.1% w/v bovine serum albumin. The assay was initiated by the removal of growth media from the cells and replacement with 45 μl of Calcium-6 dye (Molecular Devices) prepared at 1× in assay buffer. Cells were loaded with dye for 60-90 min at 37° C., 5% CO2 before initiation of the FLIPR^TETRA protocol. […] For compound profiling, test compounds were first serially diluted in DMSO (10-point curve, 1:3 dilutions) then diluted 33.3-fold in assay buffer prior to addition to the dye loaded cells on the FLIPR^TETRA. At the end of the incubation period 10 μl of AVP in assay buffer containing 0.1% BSA was added at the previously determined EC80 concentration.
In-plate controls for the assay included a Nelivaptan concentration-response curve as the reference V1b antagonist and an AVP concentration-response curve to confirm the reproducibility of the EC80 used for the compound challenge.

| SMILES | IC50 [nM] |
| --- | --- |
| CC1COc2cc(Cl)ccc2N1C(=O)N1CC2(C1)CN(c1cccnc1)C2 (stereo not shown) [20-1, (7-chloro-3-methyl-2,3-dihydro-4H-benzo[b][1,4]oxazin-4-yl)(6-(pyridin-3-yl)-2,6-diazaspiro[3.3]heptan-2-yl)methanone] | ≥ 1000 |
| Cc1nc(N2CC3(CN(C(=O)N4c5ccc(Cl)cc5OCC4C)C3)C2)ncc1F (single isomer, unassigned) [20-7-B] | ≥ 1000 |
| O=C(N1CC2(C1)CN(c1ccc(F)cn1)C2)N1CCC(F)(F)c2cc(Cl)ccc21 [17-1, (6-chloro-4,4-difluoro-3,4-dihydroquinolin-1(2H)-yl)(6-(5-fluoropyridin-2-yl)-2,6-diazaspiro[3.3]heptan-2-yl)methanone] | ≥ 1000 |
| COc1ccnc(N2CC3(CN(C(=O)N4c5ccc(Cl)cc5OCC4C)C3)C2)c1 (stereo not shown) [20-8] | ≥ 1000 |
| CC1COc2cc(F)ccc2N1C(=O)N1CC2(C1)CN(c1ncc(F)cn1)C2 (single isomer, unassigned) [18-4-B] | ≥ 1000 |
| O=C(N1CC2(C1)CN(c1ccc(F)cn1)C2)N1CCOc2cc(F)c(F)cc21 [9-6] | ≥ 1000 |
| Cc1cncc(N2CC3(CN(C(=O)N4c5ccc(F)cc5OCC4C)C3)C2)n1 (single isomer, unassigned) [20-2-A] | ≥ 1000 |
| CC1COc2cc(Cl)ccc2N1C(=O)N1CC2(C1)CN(c1noc3cccnc13)C2 (single isomer, unassigned) [18-3-B] | ≥ 1000 |
| O=C(N1CC2(C1)CN(c1ncc(F)cn1)C2)N1CCOc2cc(Cl)ccc21 [4-2] | ≥ 1000 |
| O=C(N1CC2(C1)CN(c1cnccn1)C2)N1CCOc2cc(Cl)ccc21 [8-3] | ≥ 1000 |
| CC1COc2cc(Cl)c(F)cc2N1C(=O)N1CC2(C1)CN(c1cccnn1)C2 (stereo not shown) [19-4] | ≥ 1000 |
| O=C(N1CC2(C1)CN(c1cnccn1)C2)N1CCC(O)c2cc(Cl)ccc21 (single isomer, unassigned) [13-3-A] | ≥ 1000 |
| Cc1cnc(N2CC3(CN(C(=O)N4c5ccc(Cl)cc5OCC4C)C3)C2)cn1 (single isomer, unassigned) [20-5-B] | ≥ 1000 |
| CC1COc2cc(Cl)ccc2N1C(=O)N1CC2(C1)CN(c1ncccn1)C2 (single isomer, unassigned) [1-83-B, (7-chloro-3-methyl-2,3-dihydro-4H-benzo[b][1,4]oxazin-4-yl)(6-(pyrimidin-2-yl)-2,6-diazaspiro[3.3]heptan-2-yl)methanone] | ≥ 1000 |
| Cc1ccnc(N2CC3(CN(C(=O)N4c5ccc(Cl)cc5OCC4C)C3)C2)n1 (stereo not shown) [20-12] | ≥ 1000 |
| CC1COc2cc(Cl)c(F)cc2N1C(=O)N1CC2(C1)CN(c1ncccn1)C2 (single isomer, unassigned) [19-2-B] | ≥ 1000 |
| CC1COc2cc(F)ccc2N1C(=O)N1CC2(C1)CN(c1ccc(F)cn1)C2 (stereo not shown) [12-1, (7-fluoro-3-methyl-2,3-dihydro-4H-benzo[b][1,4]oxazin-4-yl)(6-(5-fluoropyridin-2-yl)-2,6-diazaspiro[3.3]heptan-2-yl)methanone] | ≥ 1000 |
| CC1COc2cc(Cl)ccc2N1C(=O)N1CC2(C1)CN(c1cc(C#N)ccn1)C2 (single isomer, unassigned) [20-6-B] | ≥ 1000 |
| O=C(N1CC2(C1)CN(c1ccccn1)C2)N1CCOc2cc(Cl)ccc21 [8-2] | ≥ 1000 |
| Cc1ccnc(N2CC3(CN(C(=O)N4CCOc5cc(Cl)ccc54)C3)C2)c1 [1-14] | ≥ 1000 |
| COc1ccnc(N2CC3(CN(C(=O)N4c5ccc(Cl)cc5OCC4C)C3)C2)n1 (stereo not shown) [20-9] | ≥ 1000 |

The remaining lines, values ahead:

| IC50 [nM] | SMILES |
| --- | --- |
| ≥ 1000 | O=C(N1CC2(C1)CN(c1ccc(F)cn1)C2)N1CCOc2cc(Cl)ccc21 [9-7] |
| ≥ 1000 | O=C(N1CC2(C1)CN(c1noc3ccccc13)C2)N1CCOc2cc(Cl)ccc21 [4-1, (6-(benzo[d]isoxazol-3-yl)-2,6-diazaspiro[3.3]heptan-2-yl)(7-chloro-2,3-dihydro-4H-benzo[b][1,4]oxazin-4-yl)methanone] |
| ≥ 1000 | CC1COc2cc(Cl)c(F)cc2N1C(=O)N1CC2(C1)CN(c1cccnc1)C2 (stereo not shown) [19-6] |
| ≥ 1000 | CC1COc2cc(Cl)ccc2N1C(=O)N1CC2(C1)CN(c1cccnn1)C2 (single isomer, unassigned) [9-1-A] |
| ≥ 1000 | Cc1ccnc(N2CC3(CN(C(=O)N4c5ccc(Cl)cc5OCC4C)C3)C2)c1 (stereo not shown) [20-11] |
| ≥ 1000 | O=C(N1CC2(C1)CN(c1ccc(F)cn1)C2)N1CCC(O)c2cc(Cl)ccc21 (stereo not shown) [13-1, (6-chloro-4-hydroxy-3,4-dihydroquinolin-1(2H)-yl)(6-(5-fluoropyridin-2-yl)-2,6-diazaspiro[3.3]heptan-2-yl)methanone] |
| ≥ 1000 | O=C(N1CC2(C1)CN(c1cnccn1)C2)N1CCc2cc(Cl)ccc21 [8-14] |
| ≥ 1000 | O=C(N1CC2(C1)CN(c1cnccn1)C2)N1CCOCc2cc(Cl)ccc21 [8-13] |
| ≥ 1000 | O=C(N1CC2(C1)CN(c1cccc(F)n1)C2)N1CCc2cc(Cl)ccc21 [1-78] |
| ≥ 1000 | CC1CN(C(=O)N2CC3(C2)CN(c2ccc(F)cn2)C3)c2ccc(F)cc2O1 (single isomer, unassigned) [9-4-B] |
